The values that follow are results of earlier work, collected in US20160106774A1, “LIQUID PHARMACEUTICAL COMPOSITION CONTAINING PIROXICAM AND HYALURONIC ACID FOR THE TREATMENT OF OSTEOARTHRITIS” (DONG-A ST CO., LTD, priority 2013, published 2016).

SMILES strings stand for the structures.

The data set has as its system carrageenan-induced animal podedema model. Conditions: coadministration of NSAID with sodium hyaluronate; piroxicam 4 mg/kg and sodium hyaluronate 4 mg/kg; foot pad.
In the case of `O=C(O)Cc1ccccc1Nc1c(Cl)cccc1Cl` [diclofenac], the “anti-inflammatory effect of coadministration with sodium hyaluronate” value (“anti-inflammatory effect” for short) was “additive or synergistic effects”.

Regarding `CC(C)Cc1ccc(C(C)C(=O)O)cc1` (stereo not shown) [ibuprofen], the “anti-inflammatory effect” value is reported as “additive or synergistic effects”.

For `COc1ccc2c(c1)c(CC(=O)O)c(C)n2C(=O)c1ccc(Cl)cc1` [indomethacin], the “anti-inflammatory effect” value is reported as “additive or synergistic effects”.

On to `CN1C(C(=O)Nc2ccccn2)=C(O)c2ccccc2S1(=O)=O` [piroxicam], for which the “anti-inflammatory effect” value was “weak”.
